Read-outs that look alike come from different tables or passages of the source.
What was measured:
[1] = ADME solubility determination at pH 2.0 and pH 7.4; format: physicochemical; conditions: aqueous buffer, thermodynamic from solid, LC-MS/MS
Summary of the method: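 Dried residues of 10 mM DMSO stocks were shaken in PBS pH 7.4 or pH 2.0 for 24 hours at 25° C. and 1,100 rpm. After centrifugation, supernatants were quantified by LC-MS/MS against a standard of known concentration, applying a dilution factor.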

[2] = Liver microsomal stability, human liver microsomes; format: in vitro ADME; conditions: 1 μM compound, NADPH, read-out: t1/2 (min) in HLM
Summary of the method: (§1)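 Compound (1 μM final) was incubated with prewarmed human or rat liver microsomes (1 mg/mL in 100 mM phosphate master mix) plus NADPH; aliquots at 0.5–30 minutes were quenched in cold acetonitrile and quantified by LC-MS/MS. Half-life came from the ln(% remaining) versus time slope, converted to CLint (μL/min/mg prot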

[3] = Liver microsomal stability, rat liver microsomes; format: in vitro ADME; conditions: 1 μM compound, NADPH, read-out: t1/2 (min) in RLM
Summary of the method: as §1

[4] = PBS pH 2.0, shaken at 25° C. for 24 hours, read-out: Solubility at pH 2.0
[5] = PBS pH 7.4, shaken at 25° C. for 24 hours, read-out: Solubility at pH 7.4

SMILES | solubility at 24 h [1, 4] [µM] | solubility at 24 h [1, 5] [µM] | half-life at 1 μM [2] [min] | half-life at 1 μM [3] [min] | solubility at 24 h ([1]; phosphate buffered saline, PBS pH 2.0, shaken at 25° C. for 24 hours, read-out: Solubility at pH 2.0) [µM] | solubility at 24 h ([1]; phosphate buffered saline, PBS pH 7.4, shaken at 25° C. for 24 hours, read-out: Solubility at pH 7.4) [µM]
CCOc1ncnc(OCC)c1-c1ncc2cnn(Cc3ccc(-c4nc(C(F)(F)F)cn4CC)cc3)c2n1 [Example 91] | > 10 | < 10 | < 25 | < 25 | – | –
COc1ncnc(C2CC2)c1-c1nc(OC)c2cnn(Cc3ccc(-n4nc(C(F)(F)F)cc4C)cc3)c2n1 [Example 28] | < 10 | < 10 | > 25 | > 25 | – | –
COc1ncnc(C2CC2)c1-c1ncc2cnn(Cc3ccc(-n4nc(C(F)(F)F)cc4-c4ccco4)cc3)c2n1 [Example 30, 6-(4-cyclopropyl-6-methoxypyrimidin-5-yl)-1-(4-(5-(furan-2-yl)-3-(trifluoromethyl)-1H-pyrazol-1-yl)benzyl)-1H-pyrazolo[3,4-d]pyrimidine] | < 10 | < 10 | < 25 | < 25 | – | –
COc1nc(C)nc(C2CC2)c1-c1ncc2cnn(Cc3ccc(-c4nc(C(F)(F)F)cn4C)cc3)c2n1 [Example 133, 6-(4-Cyclopropyl-6-methoxy-2-methylpyrimidin-5-yl)-1-(4-(1-methyl-4-(trifluoromethyl)-1H-imidazol-2-yl)benzyl)-1H-pyrazolo[3,4-d]pyrimidine] | > 10 | > 10 | < 25 | < 25 | – | –
CCOc1ncnc(OC)c1-c1ncc2cnn(Cc3ccc(-c4nc(C(F)(F)F)cn4CC)cc3)c2n1 [Example 113] | > 10 | > 10 | > 25 | < 25 | – | –
COc1ncnc(C2CC2)c1-c1ncc2cnn(Cc3ccc(-c4nc(C(F)(F)F)cn4C4COC4)cc3)c2n1 [Example 145] | > 10 | > 10 | > 25 | < 25 | – | –
CCn1cc(C(F)(F)F)nc1-c1ccc(Cn2ncc3cnc(-c4c(OC)ncnc4C4CC4)nc32)cc1F [Example 18] | < 10 | < 10 | > 25 | > 25 | – | –
CC(C)c1ccccc1-c1ncc2cnn(Cc3ccc(-c4nc(C(F)(F)F)cn4C4CN(C)C4)cc3)c2n1 [Example 152, 6-(2-Isopropylphenyl)-1-(4-(1-(1-methylazetidin-3-yl)-4-(trifluoromethyl)-1H-imidazol-2-yl)benzyl)-1H-pyrazolo[3,4-d]pyrimidine] | > 10 | > 10 | < 25 | < 25 | – | –
CCOc1ncnc(C2CC2)c1-c1ncc2cnn(Cc3ccc(-c4nc(C(F)(F)F)cn4C)cc3)c2n1 [Example 39] | – | – | < 25 | < 25 | > 10 | < 10
COc1ncnc(C2CC2)c1-c1ncc2cnn(Cc3ccc(-c4nc(C(F)(F)F)cn4CC(C)F)cc3)c2n1 (stereo not shown) [Example 142] | > 10 | < 10 | > 25 | < 25 | – | –
CCn1cc(C(F)(F)F)nc1-c1ccc(Cn2nc(OC3CCC3)c3cnc(-c4c(OC)ncnc4C4CC4)nc32)cc1 [Example 184] | < 10 | < 10 | < 25 | < 25 | – | –
CCn1cc(C(F)(F)F)nc1-c1ccc(Cn2nc(OC)c3cnc(-c4c(OC)ncnc4C4CC4)nc32)cc1 [Example 176] | > 10 | < 10 | > 25 | > 25 | – | –
Cn1cc(C(F)(F)F)nc1-c1ccc(Cn2ncc3cnc(-c4ccccc4S(C)(=O)=O)nc32)cc1 [Example 3, 1-(4-(1-methyl-4-(trifluoromethyl)-1H-imidazol-2-yl)benzyl)-6-(2-(methylsulfonyl)-phenyl)-1H-pyrazolo[3,4-d]pyrimidine] | > 10 | < 10 | > 25 | > 25 | – | –
CCOc1ncnc(C2CC2)c1-c1ncc2c(OCC)nn(Cc3ccc(-c4nc(C(F)(F)F)cn4CC)cc3)c2n1 [Example 183] | < 10 | < 10 | < 25 | < 25 | – | –
COc1ncnc(C2CC2)c1-c1ncc2cnn(Cc3ccc(-n4nc(C(F)(F)F)cc4C(C)C)cc3)c2n1 [Example 29] | < 10 | < 10 | > 25 | > 25 | – | –
CCS(=O)(=O)c1ccccc1-c1ncc2cnn(Cc3ccc(-c4nc(C(F)(F)F)cn4C)cc3)c2n1 [Example 7, 6-(2-(ethylsulfonyl)phenyl)-1-(4-(1-methyl-4-(trifluoromethyl)-1H-imidazol-2-yl)benzyl)-1H-pyrazolo[3,4-d]pyrimidine] | < 10 | < 10 | > 25 | < 25 | – | –

Reference: US11485736B2 (KSQ Therapeutics, Inc., priority 2018, dated 2022)
